The record followed here is PubChem BioAssay AID1259407 (Chemical Carcinogenesis Research Information System (CCRIS), 2018).

The data set deals with CCRIS mutagenicity, Ames/micronucleus/aberration tests. Description: CCRIS mutagenicity studies.
Where [1] appears, read: Test System: AMES SALMONELLA TYPHIMURIUM, Strain/Indicator: TA97, Metabolic Activation: NONE, Method: PREINCUBATION
Setting [2] is: Test System: AMES SALMONELLA TYPHIMURIUM, Strain/Indicator: TA102, Metabolic Activation: NONE, Method: PREINCUBATION
Setting [3] is: Test System: AMES SALMONELLA TYPHIMURIUM, Strain/Indicator: TA102, Metabolic Activation: RAT, LIVER, S-9, AROCLOR 1254, Method: PREINCUBATION
[4] abbreviates: Test System: AMES SALMONELLA TYPHIMURIUM, Strain/Indicator: TA98, Metabolic Activation: NONE, Method: PREINCUBATION
The mark [5] stands for this setting: Test System: AMES SALMONELLA TYPHIMURIUM, Strain/Indicator: TA98, Metabolic Activation: RAT, LIVER, S-9, AROCLOR 1254, Method: PREINCUBATION
Where [6] appears, read: Test System: AMES SALMONELLA TYPHIMURIUM, Strain/Indicator: TA100, Metabolic Activation: NONE, Method: PREINCUBATION
The mark [7] stands for this setting: Test System: AMES SALMONELLA TYPHIMURIUM, Strain/Indicator: TA100, Metabolic Activation: RAT, LIVER, S-9, AROCLOR 1254, Method: PREINCUBATION
The mark [8] stands for this setting: Test System: AMES SALMONELLA TYPHIMURIUM, Strain/Indicator: TA1535, Metabolic Activation: NONE, Method: PREINCUBATION
Setting [9] is: Test System: AMES SALMONELLA TYPHIMURIUM, Strain/Indicator: TA1537, Metabolic Activation: NONE, Method: PREINCUBATION

Molecules are shown by their SMILES. Calls of active or inactive are those of the source. No rule for the calls is given here.

For `CCCCCCCCCCCCCC(=O)ON(C(C)=O)c1ccc2c(c1)Cc1ccccc1-2`, under “Test System: UDS HUMAN FIBROBLASTS, Strain/Indicator: THY INCORP (NON-S-PHASE), Metabolic Activation: NONE, Method: AUTORADIOGRAPHY”, the mutagenic call is “active; positive”.

For `c1cnc2c(c1)ccc1c3cccnc3ccc12`, the mutagenic call is “active; positive” (Test System: AMES SALMONELLA TYPHIMURIUM, Strain/Indicator: TA100, Metabolic Activation: POOLED HUMAN LIVER MICROSOMES, Method: PREINCUBATION); “active; positive” (Test System: AMES SALMONELLA TYPHIMURIUM, Strain/Indicator: TA100, Metabolic Activation: RAT, LIVER, S-9, PHENOBARBITAL AND 5,6-BENZOFLAVONE, Method: PREINCUBATION); “active; positive; g:c to t:a transversions in all organs” (Test System: LACZ TRANSGENIC MOUSE (MUTATM MOUSE), Strain/Indicator: LACZ MUTANT FREQUENCY, Method: LIVER, SPLEEN, LUNG, KIDNEY, BONE MARROW, COLON HARVESTED 7 D AFTER LAST DOSE, DNA ISOLATED).

Turning to `C=CC(=O)OCCOC1CC2CC1C1CC=CC21` (stereo not given), the mutagenic call (Test System: MOUSE LYMPHOMA, Strain/Indicator: L5178Y (TK+/TK-), Metabolic Activation: NONE, Method: SUSPENSION/PLATE) was “active; positive”.

As to `O=C1c2cc(O)cc(O)c2C(=O)c2c1cc1c(c2O)[C@@H]2C=CO[C@@H]2O1`, the mutagenic call (Test System: UDS RODENT HEPATOCYTES, Strain/Indicator: THY INCORP, Metabolic Activation: NONE, Method: AUTORADIOGRAPHY) was “active; positive”.

With `Cc1ccc2c(=O)c3cccc4ccc1c2c43`, the mutagenic call (Test System: AMES SALMONELLA TYPHIMURIUM, Strain/Indicator: TA100, Metabolic Activation: RAT, LIVER, S-9, AROCLOR 1254, Method: STANDARD PLATE) was “active; positive”.

For `O=C1O[C@H]([C@H](O)CO)C(O)=C1O`, the mutagenic call is “inactive; negative” (End Point: IN VIVO MICRONUCLEUS, Test System: BONE MARROW POLYCHROMATIC ERYTHROCYTES, Species: MOUSE, Strain/Sex: DDY/MALE, Route: IP); “inactive; negative” under setting [1]; “inactive; negative” (Test System: AMES SALMONELLA TYPHIMURIUM, Strain/Indicator: TA97, Metabolic Activation: RAT, LIVER, S-9, AROCLOR 1254, Method: PREINCUBATION); “inactive; negative” under setting [2]; “inactive; negative” under setting [3].

As for `Cc1cccc(OP(=O)(Oc2cccc(C)c2)Oc2cccc(C)c2)c1`, the mutagenic call is “inactive; negative” (Test System: AMES SALMONELLA TYPHIMURIUM, Strain/Indicator: TA98, Metabolic Activation: HAMSTER, LIVER, S-9, AROCLOR 1254, Method: PREINCUBATION); “inactive; negative” under setting [4]; “inactive; negative” under setting [5]; “inactive; negative” (Test System: AMES SALMONELLA TYPHIMURIUM, Strain/Indicator: TA100, Metabolic Activation: HAMSTER, LIVER, S-9, AROCLOR 1254, Method: PREINCUBATION); “inactive; negative” under setting [6]; “inactive; negative” under setting [7]. Also, the mutagenic call was “inactive; negative” (Test System: AMES SALMONELLA TYPHIMURIUM, Strain/Indicator: TA1535, Metabolic Activation: HAMSTER, LIVER, S-9, AROCLOR 1254, Method: PREINCUBATION); “inactive; negative” under setting [8]; “inactive; negative” (Test System: AMES SALMONELLA TYPHIMURIUM, Strain/Indicator: TA1535, Metabolic Activation: RAT, LIVER, S-9, AROCLOR 1254, Method: PREINCUBATION); “inactive; negative” (Test System: AMES SALMONELLA TYPHIMURIUM, Strain/Indicator: TA1537, Metabolic Activation: HAMSTER, LIVER, S-9, AROCLOR 1254, Method: PREINCUBATION); “inactive; negative” under setting [9]; “inactive; negative” (Test System: AMES SALMONELLA TYPHIMURIUM, Strain/Indicator: TA1537, Metabolic Activation: RAT, LIVER, S-9, AROCLOR 1254, Method: PREINCUBATION).

Take `Cc1ccsc1`: the mutagenic call is “inactive; negative” under setting [4]; “inactive; negative” under setting [5]; “inactive; negative” under setting [6]; “inactive; negative” under setting [7]; “inactive; negative” under setting [2]; “inactive; negative” under setting [3].

For the compound `CCCCCCCCCCCCCCCCCCCC`, the mutagenic call is “inactive; negative” (Test System: AMES SALMONELLA TYPHIMURIUM, Strain/Indicator: TA97, Metabolic Activation: HAMSTER, LIVER, S-9, AROCLOR 1254 (10 OR 30%), Method: PREINCUBATION); “inactive; negative” under setting [1]; “inactive; negative” (Test System: AMES SALMONELLA TYPHIMURIUM, Strain/Indicator: TA97, Metabolic Activation: RAT, LIVER, S-9, AROCLOR 1254 (10 OR 30%), Method: PREINCUBATION); “inactive; negative” (Test System: AMES SALMONELLA TYPHIMURIUM, Strain/Indicator: TA98, Metabolic Activation: HAMSTER, LIVER, S-9, AROCLOR 1254 (10 OR 30%), Method: PREINCUBATION); “inactive; negative” under setting [4]; “inactive; negative” (Test System: AMES SALMONELLA TYPHIMURIUM, Strain/Indicator: TA98, Metabolic Activation: RAT, LIVER, S-9, AROCLOR 1254 (10 OR 30%), Method: PREINCUBATION). Besides, the mutagenic call by setting is: (Test System: AMES SALMONELLA TYPHIMURIUM, Strain/Indicator: TA100, Metabolic Activation: HAMSTER, LIVER, S-9, AROCLOR 1254 (10 OR 30%), Method: PREINCUBATION) “inactive; negative”; under setting [6], “inactive; negative”; (Test System: AMES SALMONELLA TYPHIMURIUM, Strain/Indicator: TA100, Metabolic Activation: RAT, LIVER, S-9, AROCLOR 1254 (10 OR 30%), Method: PREINCUBATION) “inactive; negative”; (Test System: AMES SALMONELLA TYPHIMURIUM, Strain/Indicator: TA1535, Metabolic Activation: HAMSTER, LIVER, S-9, AROCLOR 1254 (10 OR 30%), Method: PREINCUBATION) “inactive; negative”; under setting [8], “inactive; negative”; (Test System: AMES SALMONELLA TYPHIMURIUM, Strain/Indicator: TA1535, Metabolic Activation: RAT, LIVER, S-9, AROCLOR 1254 (10 OR 30%), Method: PREINCUBATION) “inactive; negative”. The mutagenic call reads like this: (Test System: AMES SALMONELLA TYPHIMURIUM, Strain/Indicator: TA1537, Metabolic Activation: HAMSTER, LIVER, S-9, AROCLOR 1254 (30%), Method: PREINCUBATION) “inactive; negative”; under setting [9], “inactive; negative”; (Test System: AMES SALMONELLA TYPHIMURIUM, Strain/Indicator: TA1537, Metabolic Activation: RAT, LIVER, S-9, AROCLOR 1254 (30%), Method: PREINCUBATION) “inactive; negative”.
